Data taken from patent publication US20260265771A1, “METHODS OF INCREASING THE REGENERATION EFFICIENCY IN PLANTS” (Institute of Genetics and Developmental Biology Chinese …, priority 2022, published 2026).
Where “and” joins values, the source holds several entries; their conditions need not be identical. Equal entries are not always repeated. Entries after “also recorded” stand apart in the source; their conditions may differ.

What was measured:
RER [1] = test: pFRK1::LUC expression in A. thaliana protoplasts (receptor activation); type: cell-based, tomato; conditions: 3 h
Chain of RER (as listed by the source): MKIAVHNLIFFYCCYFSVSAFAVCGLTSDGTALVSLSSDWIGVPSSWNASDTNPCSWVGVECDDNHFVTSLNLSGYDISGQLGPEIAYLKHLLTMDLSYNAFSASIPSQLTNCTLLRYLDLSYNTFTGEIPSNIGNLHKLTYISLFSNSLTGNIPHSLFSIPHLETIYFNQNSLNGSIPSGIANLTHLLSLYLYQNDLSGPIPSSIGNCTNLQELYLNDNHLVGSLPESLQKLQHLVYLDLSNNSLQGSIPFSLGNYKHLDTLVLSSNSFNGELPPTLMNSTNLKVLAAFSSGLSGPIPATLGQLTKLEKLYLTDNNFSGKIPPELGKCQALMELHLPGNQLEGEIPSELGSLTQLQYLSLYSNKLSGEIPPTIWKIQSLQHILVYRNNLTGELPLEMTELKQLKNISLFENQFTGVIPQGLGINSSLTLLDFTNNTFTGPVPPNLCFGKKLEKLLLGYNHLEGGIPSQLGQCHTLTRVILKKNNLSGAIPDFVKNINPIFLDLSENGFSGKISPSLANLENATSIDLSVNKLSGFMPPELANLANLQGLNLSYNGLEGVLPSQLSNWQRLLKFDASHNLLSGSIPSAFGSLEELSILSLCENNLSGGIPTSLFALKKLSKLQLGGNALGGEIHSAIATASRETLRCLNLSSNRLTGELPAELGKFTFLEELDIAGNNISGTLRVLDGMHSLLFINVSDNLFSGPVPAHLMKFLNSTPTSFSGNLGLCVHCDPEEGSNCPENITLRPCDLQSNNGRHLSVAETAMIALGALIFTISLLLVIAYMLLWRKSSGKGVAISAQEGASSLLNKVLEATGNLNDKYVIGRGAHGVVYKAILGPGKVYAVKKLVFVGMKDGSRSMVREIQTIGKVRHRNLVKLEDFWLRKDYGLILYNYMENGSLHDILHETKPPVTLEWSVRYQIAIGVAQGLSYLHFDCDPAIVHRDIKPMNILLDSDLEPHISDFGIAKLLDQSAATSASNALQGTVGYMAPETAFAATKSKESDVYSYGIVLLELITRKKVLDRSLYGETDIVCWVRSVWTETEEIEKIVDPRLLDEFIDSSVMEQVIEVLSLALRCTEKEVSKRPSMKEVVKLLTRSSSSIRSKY
Procedure: Data are mean±SD, n=3 repeats. […] Data are mean±SD, n=3 repeats.
Receptor activation was tested by using FRK1 expression as a marker gene. […] Data are mean±SD, n=3 repeats. ***P<0.001 (Student's t test); ns, not significant FRK-Luciferase expression was used as a marker to test REF1 binding-mediated activation of its receptor. Based on these assay, the EC50 was calculated (half-maximal stimulation) of REF1-receptor binding as an assessment of the binding affinity of REF1 to its receptor RER.

ectodomains of RER = test: Pull-down assay with HA-Flag-tagged RER ectodomains and biotinylated peptides; type: binding, tomato; conditions: biotinylated peptide
Chain of ectodomains of RER (as listed by the source): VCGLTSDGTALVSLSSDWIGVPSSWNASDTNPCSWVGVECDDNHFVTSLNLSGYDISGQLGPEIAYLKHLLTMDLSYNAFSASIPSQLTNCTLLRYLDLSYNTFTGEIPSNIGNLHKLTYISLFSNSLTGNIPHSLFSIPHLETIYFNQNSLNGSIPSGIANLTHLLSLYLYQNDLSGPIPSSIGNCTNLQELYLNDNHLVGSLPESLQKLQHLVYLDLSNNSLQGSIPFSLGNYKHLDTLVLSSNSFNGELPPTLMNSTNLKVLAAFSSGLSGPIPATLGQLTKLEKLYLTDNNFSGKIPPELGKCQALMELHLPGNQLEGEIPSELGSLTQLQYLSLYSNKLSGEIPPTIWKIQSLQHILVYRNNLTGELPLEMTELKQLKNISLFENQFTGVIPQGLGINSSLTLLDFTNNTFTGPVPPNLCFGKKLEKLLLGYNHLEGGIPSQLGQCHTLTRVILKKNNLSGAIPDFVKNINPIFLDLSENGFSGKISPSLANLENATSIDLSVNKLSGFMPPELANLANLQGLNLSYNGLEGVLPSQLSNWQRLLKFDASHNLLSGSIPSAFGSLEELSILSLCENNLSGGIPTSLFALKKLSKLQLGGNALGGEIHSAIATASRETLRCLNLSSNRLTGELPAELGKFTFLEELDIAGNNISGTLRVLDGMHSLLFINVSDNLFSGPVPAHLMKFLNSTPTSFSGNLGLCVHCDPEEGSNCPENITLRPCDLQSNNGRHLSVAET

[2] = test system: serk and sIwind1 mutant hypocotyl explants; test: Callus formation and shoot organogenesis of serk and sIwind1 mutant hypocotyl explants; type: cell-based, tomato; conditions: 1 nM REF1
Procedure: FIG. 49—REF1-RER1 regulates regeneration through SERK co-receptors. (a) RER1 complexes with SERK1, SERK3a and SERK3b in a REF1-dependent manner. Tobacco leaves transfected with SERKs-myc and RER1-HA-Flag were treated with 100 nM REF1 before IP with anti-myc agarose. RER1 and SERKs were detected by immunoblotting with anti-Flag or anti-myc antibodies, respectively. (b and c) REF1-induced callus formation of indicated genotypes. Hypocotyl explants were cultured on CIM with or without 1 nM REF1 for 14 d before callus phenotype was scored. Shown are representative callus images (b) and quantification of the callus projection area (c). Bars, 1 mm. Data are mean±SE. n=30 hypocotyl explants. […] Hypocotyl explants were cultured on CIM for 14 d and then transferred to SIM with or without 1 nM REF1 for 21d before shoot organogenesis phenotype was scored. […] In (c), the projected area of callus was quantified by Image J. Box plots represented the distribution of projected callus area. […] In (c) and (e), data points from three biological replicates were analysed with a one-sided Kruskal-Wallis test with Holm correction, followed by post hoc Dunn's test. […]
(a) Induction of the SIWIND1 promoter activity at the wound sites of hypocotyl explants. […] Hypocotyl explants were cultured on CIM with or without 1 nM REF1 for 14 d before callus phenotype was scored. […]

LA1777 tomatoes = test: Shoot regeneration of recalcitrant wild tomato LA1777; type: cell-based, S. habrochaites; conditions: LA1777, 1 nM REF1 vs REF1 absent
Procedure: (a) photos of LA1777 grown in the presence and absence of 1 nM REF1. (b) relative regeneration frequency of LA1777 grown in the presence and absence of 1 nM REF1. (c) number of hypocotyl of LA1777 grown in the presence and absence of 1 nM REF1.
(a) photos of control LA1777 tomatoes, PRR expressing LA1777 tomatoes, RER expressing LA1777 tomatoes, and PRR and RER expressing LA1777 tomatoes exposed to 1 nM REF1 for 25 days, or absence of REF1 (mock). (b) relative regeneration frequency of control LA1777 tomatoes, PRR expressing LA1777 tomatoes, RER expressing LA1777 tomatoes, and PRR and RER expressing LA1777 tomatoes exposed to 1 nM REF1 for 25 days, or absence of REF1 (mock).
The effect of exogenously applied REF1 in a shoot inducing growth medium was investigated in LA1777 tomatoes by growing LA1777 tomatoes in the presence and absence of 1 nM REF1. […] Likewise, FIG. 20B shoes that relative regeneration frequency of LA1777 was 6-fold higher when grown in the presence of REF1 compared to when REF1 was absent, similarly, the number of hypocotyl was also higher in the presence of REF1.

PI126944 tomatoes = test: Shoot regeneration of recalcitrant wild tomato PI126944; type: cell-based, S. peruvianum; conditions: PI126944, 1 nM REF1 vs REF1 absent
Procedure: (a) photos of PI126944 grown in the presence and absence of 1 nM REF1. (b) relative regeneration frequency of PI126944 grown in the presence and absence of 1 nM REF1. (c) number of hypocotyl of PI126944 grown in the presence and absence of 1 nM REF1.
(a) Photos of P126944 tomatoes (WT, PRR transformed, RER transformed, and PRR+RER transformed, grown in presence or absence of 1 nM REF1 for 19 days. (b) relative regeneration frequency of P126944 tomatoes (WT, PRR transformed, RER transformed, and PRR+RER transformed, grown in presence or absence of 1 nM REF1 for 19 days.
The effect of exogenously applied REF1 in a shoot inducing growth medium was investigated in PI126944 tomatoes by growing PI126944 tomatoes in the presence and absence of 1 nM REF1.
PI126944 tomatoes were transformed with the PRR+RER-OE construct as well as an equivalent construct only containing PRR and another construct only containing RER. Plants expressing these constructs along with a wild type control were grown in the presence or absence of REF1 for 19 days.

RER [3] = test: Autophosphorylation assay of RER in tobacco leaves; type: cell-based, tomato; conditions: 100 nM, 20 min

Sequence: ATDRRGRPPSRPKVGSGPPPQNN (listed as Solanum lycopersicum) [REF1, 23 amino acid tomato peptide cleaved from precursor PROSIPEP]
- binding-mediated activation of receptor RER (pFRK1::LUC expression) (RER [1]; 100 nM): bound
- binding affinity of REF1 to its receptor RER (RER [1]; indicated concentrations): high affinity
- binding to RER ectodomain (pull-down) (ectodomains of RER): binds
- rescue of compromised regenerative capacity ([2]; sIwind1 mutants): could not be rescued
- rescue of regenerative defects (callus formation, shoot organogenesis) ([2]; serk3a-1, serk3b-1 and serk3a-1 serk3b-1 mutants): failed to rescue
- number of hypocotyl (LA1777 tomatoes): higher
- relative regeneration frequency, increase (LA1777 tomatoes): ~ 6 fold and 6 fold
- shoot regeneration (LA1777 tomatoes): greater shoot regeneration; also recorded: promotes shoot regeneration
- number of hypocotyl (PI126944 tomatoes): higher
- relative regeneration frequency, increase (PI126944 tomatoes): 5.5 fold
- shoot regeneration (PI126944 tomatoes): greater shoot regeneration; also recorded: promotes shoot regeneration
- auto-phosphorylation of RER (RER [3]): triggers auto-phosphorylation
